Test results published in patent publication US20260256728A1, “TREATMENT FOR ASYMPTOMATIC STARGARDT DISEASE PATIENTS” (priority 2024, published 2026).

Tested on: atrophic retinal lesions in Stargardt disease patients
Experiment: TEASE-1 growth rate of atrophic retinal lesions by fundus autofluorescence imaging
Format: in vivo, human
Set-up: relative slower growth rate of atrophic retinal lesions versus control / Percentage Slowing of Atrophic Retinal Lesion Growth Rate: concentration or dose not given beside the values
Description: The Tolerability and Effects of gildeuretinol acetate in Stargardt Disease (Clinical trial group 1, also known as TEASE-1) was a 24-month, multicenter, double-masked, placebo-controlled trial designed to evaluate the efficacy and safety of daily oral gildeuretinol acetate in slowing the growth of atrophic retinal lesions in Stargardt disease patients. The trial was conducted at multiple sites in the United States (NCT02402660).
Patients 12 years or older, clinically diagnosed with Stargardt disease, with at least one ABCA4 mutation, at least one eye presenting with well-demarcated areas of reduced fundus autofluorescence including retinal atrophic lesions, and with any visual acuity, were enrolled.
Patients were randomized to gildeuretinol acetate 14 mg capsules, gildeuretinol acetate 24 mg capsules, or placebo capsules, to be taken once daily for one year. After one year, 50% of randomly selected patients receiving placebo were crossed over in a 1:1 ratio to gildeuretinol acetate 14 mg capsules or gildeuretinol acetate 24 mg capsules for a second year.
Deidentified retinal images of patients not enrolled in the trial were included as a natural history cohort. This natural history cohort comprised patients diagnosed with Stargardt disease of any age, with two or more longitudinal fundus autofluorescence images taken at least four months apart over a maximum period of 2.5 years.
[…] retinal imaging comparing gildeuretinol acetate versus the untreated arm ([…]). Only well-delineated and homogeneous retinal atrophic lesions ≥0.2 mm^2 with a summed area ≥0.5 mm^2 were included in the primary analysis.
The primary endpoint analysis used a linear mixed-effect model (LMEM) with repeated measures, conferring a higher power to detect smaller effects. All observed data, including both eyes, were utilized. Treatment duration was computed as a continuous measure for each visit based on years since randomization. Adjustments for baseline retinal atrophy used the baseline atrophic retinal lesion size as a fixed effect in the LMEM. Additional fixed effects included treatment arm, treatment duration, and interaction between the treatment arm and treatment duration. Random effects included patient, eye, grader to adjust for correlation between eyes within a patient, graders' assessment of an eye, and observations of the same eye over time. A random effect slope term was added to the effect of treatment duration. Patients who crossed over to gildeuretinol acetate after year one were included in the untreated arm from baseline to year one, then in the gildeuretinol acetate arm from […] upon crossing over to gildeuretinol acetate. The full analysis set (FAS) comprised all randomized patients who received at least one dose of the study drug.
[…] All available data between 0 and 24 months was used to compute the slope of each segment. The primary efficacy endpoint was the slope of the second segment. No constraints were imposed on the Y-intercept. All growth rates were calculated on a per-year basis.
No imputations were made for missing data because the LMEM yields valid inferences under the assumption of a missing-at-random mechanism. The two-sided P-value of the primary efficacy endpoint was calculated using Kenward-Roger's method for handling denominator degrees of freedom and small samples. The goodness of fit of the linear mixed-effect model was provided as R-squared (R^2). Analyses were conducted in R (R Core Team, 2020). Prespecified, unadjusted sensitivity analyses of the primary efficacy endpoint included growth rates of untransformed areas of retinal atrophy and growth rates using a single-slope from baseline until the last available visit. Post-hoc unadjusted analyses were performed to evaluate the potential contribution of patient characteristics.

[2H]C([2H])([2H])C(/C=C/C=C(C)/C=C/C1=C(C)CCCC1(C)C)=C\CO [Gildeuretinol, C20D3-retinol]
Percentage Slowing of Atrophic Retinal Lesion Growth Rate (Crossover patients: 12 months placebo vs. 12 months treatment): 21% | Percentage Slowing of Atrophic Retinal Lesion Growth Rate (Excluding 2 natural history cases <18 years old, 9 natural histories >60 years old): 21% | Percentage Slowing of Atrophic Retinal Lesion Growth Rate (Excluding 3 randomized patients with one confirmed mutation): 20% | Percentage Slowing of Atrophic Retinal Lesion Growth Rate (Excluding 13 natural history cases without any confirmed ABCA4 mutations and 6 natural histories with one confirmed mutation): 20% | Percentage Slowing of Atrophic Retinal Lesion Growth Rate (Excluding 16 natural histories with only two follow up time points): 20% | Percentage Slowing of Atrophic Retinal Lesion Growth Rate (Excluding natural history, randomized patients only, one slope (mm^2)): 30% | Percentage Slowing of Atrophic Retinal Lesion Growth Rate (Excluding natural history, randomized patients only, two slopes (mm^2)): 23% | Percentage Slowing of Atrophic Retinal Lesion Growth Rate (Using a single-slope from 0 to 24 months (mm^2)): 31% | Percentage Slowing of Atrophic Retinal Lesion Growth Rate (Using untransformed areas of atrophic lesions (mm^2)): 28%
